{"source": "patent US7417023B2", "about": "“Targeted delivery of bioaffecting compounds for the treatment of cancer” (Faulk Pharmaceuticals, Inc., priority 2001, dated 2008)", "key": {"transferrin receptors": {"tested_on": "transferrin receptors", "assay": "regulation of transferrin receptors on drug-sensitive and drug-resistant cancer cells", "format": "cell-based", "settings": "more on drug-resistant than on drug-sensitive cells"}, "[1]": {"tested_on": "doxorubicin-resistant cancer cells", "settings": "cited from earlier work"}, "[2]": {"tested_on": "drug-resistant cancer cells", "assay": "viability of drug-resistant cancer cells", "format": "cell-based", "settings": "after 48 hours in a given concentration", "source_text": "(§1) In order to test the relationship between calcium and transferrin receptors, the effect of calcium channel inhibitors on the regulation of transferrin receptors was studied in drug-sensitive and drug-resistant cancer cells. […]. […] The addition of both iron and calcium channel blockers had no effect on cell viability.\n(§2) In light of the above findings, another series of experiments were done to determine whether the restriction of iron by deferoxamine had differential effects on drug-sensitive and drug-resistant cancer cells."}, "[3]": {"tested_on": "drug-sensitive cancer cells", "assay": "viability of drug-sensitive cancer cells", "format": "cell-based", "settings": "after 48 hours in a given concentration", "source_text": "as §1, §2"}, "advanced ovarian cancer": {"tested_on": "advanced ovarian cancer", "assay": "unpublished clinical study of 23 patients with advanced ovarian cancer", "format": "in vivo, human", "settings": "equivalent to 1 mg doxorubicin per day, days 15 through 19 of monthly cycles; time between diagnosis and randomization 18 months; vs placebo", "experimental": "There is an unpublished clinical study of 23 patients with advanced ovarian cancer who were randomized into test (12 patients) and placebo (11 patients) groups. The test group received transferrin-doxorubicin conjugates equivalent to 1 mg doxorubicin per day on days 15 through 19 of monthly treatment cycles."}, "[4]": {"tested_on": "leukemic cells in peripheral blood", "settings": "cited from earlier work"}, "[5]": {"tested_on": "metastatic disease from a sarcoma"}, "human mesothelioma cells": {"tested_on": "human mesothelioma cells", "settings": "nude mice, compared to animals treated only with doxorubicin; cited from earlier work"}}, "note": "Like-named read-outs stand apart in the source and are kept apart here.", "data": [{"compound": "transferrin-bound iron: iron bound to transferrin", "values": [{"measurement": "regulation of transferrin receptors by calcium channel blockers or iron", "setting": "transferrin receptors", "value": "down-regulated receptors much more on drug-resistant cells"}]}, {"compound": "COc1cccc2c1C(=O)c1c(O)c3c(c(O)c1C2=O)C[C@@](O)(C(=O)CO)C[C@@H]3O[C@H]1C[C@H](N)[C@H](O)[C@H](C)O1", "note": "[doxorubicin, reference compound]", "values": [{"measurement": "killing of drug-resistant cancer cells", "setting": "[1]", "value": "not killed by 10-fold higher concentrations"}]}, {"compound": "CC(=O)N(O)CCCCCNC(=O)CCC(=O)N(O)CCCCCNC(=O)CCC(=O)N(O)CCCCCN", "note": "[deferoxamine]", "values": [{"measurement": "viability (cells alive)", "setting": "[2]", "value": 16, "unit": "%"}, {"measurement": "viability", "setting": "[3]", "value": 93, "unit": "%"}]}, {"compound": "[Cl][Cd][Cl]", "note": "[CdCl2, reference compound]", "values": [{"measurement": "regulation of transferrin receptors by calcium channel blockers or iron", "setting": "transferrin receptors", "value": "down-regulation of receptors"}]}, {"compound": "transferrin-doxorubicin conjugates", "values": [{"measurement": "Cox regression estimates of survival rates", "setting": "advanced ovarian cancer", "value": "significant difference"}, {"measurement": "killing of drug-resistant cancer cells", "setting": "[1]", "value": "effectively kill multi-drug resistant cells"}, {"measurement": "killing of drug-resistant cancer cells", "setting": "[1]; listed as doxorubicin conjugates of transferrin", "value": "kill doxorubicin-resistant cancer cells"}, {"measurement": "toxic effects", "setting": "[4]; 7 acute leukemia patients, 1 mg/day intravenously for 5 days", "value": "no toxic effects"}, {"measurement": "decrease of the number of leukemic cells in peripheral blood", "setting": "[4]; 7 patients, within 10-days following therapy", "value": 86, "unit": "%"}, {"measurement": "extension of disease by bone marrow biopsies", "setting": "[4]; before and after treatment", "value": "no extension of disease"}, {"measurement": "radiological evidence of tumor", "setting": "[5]; by January", "value": "no radiological evidence of tumor"}, {"measurement": "metastatic lesions of the lungs", "setting": "[5]; treatment begun August 2000, by November", "value": "substantially cleared of metastatic lesions"}, {"measurement": "survival", "setting": "human mesothelioma cells", "value": "significantly prolonging life"}]}]}
